According to US20230219962A1, “PYRAZOLO[4,3-d]PYRIMIDINE DERIVATIVES AND METHODS OF USE THEREOF FOR THE TREATMENT OF CELLULAR PROLIFERATIVE DISORDERS” (Merck Sharp & Dohme LLC, priority 2020, published 2023):
pEC50: −log10 of the molar value.

Key:
hTLR7 = target: T1, hTLR7 (Homo sapiens, UniProt Q9NYK1); assay: Human TLR7 Reporter Assay; format: cell-based; settings: HEK-Blue hTLR7 cells, 16 hours, normalized to CL097 (6 μM) and DMSO
T1 construct: host or cells: HEK-Blue hTLR7 cells (HEK293-derived, own knowledge)
T1 sequence (Q9NYK1 27-1049): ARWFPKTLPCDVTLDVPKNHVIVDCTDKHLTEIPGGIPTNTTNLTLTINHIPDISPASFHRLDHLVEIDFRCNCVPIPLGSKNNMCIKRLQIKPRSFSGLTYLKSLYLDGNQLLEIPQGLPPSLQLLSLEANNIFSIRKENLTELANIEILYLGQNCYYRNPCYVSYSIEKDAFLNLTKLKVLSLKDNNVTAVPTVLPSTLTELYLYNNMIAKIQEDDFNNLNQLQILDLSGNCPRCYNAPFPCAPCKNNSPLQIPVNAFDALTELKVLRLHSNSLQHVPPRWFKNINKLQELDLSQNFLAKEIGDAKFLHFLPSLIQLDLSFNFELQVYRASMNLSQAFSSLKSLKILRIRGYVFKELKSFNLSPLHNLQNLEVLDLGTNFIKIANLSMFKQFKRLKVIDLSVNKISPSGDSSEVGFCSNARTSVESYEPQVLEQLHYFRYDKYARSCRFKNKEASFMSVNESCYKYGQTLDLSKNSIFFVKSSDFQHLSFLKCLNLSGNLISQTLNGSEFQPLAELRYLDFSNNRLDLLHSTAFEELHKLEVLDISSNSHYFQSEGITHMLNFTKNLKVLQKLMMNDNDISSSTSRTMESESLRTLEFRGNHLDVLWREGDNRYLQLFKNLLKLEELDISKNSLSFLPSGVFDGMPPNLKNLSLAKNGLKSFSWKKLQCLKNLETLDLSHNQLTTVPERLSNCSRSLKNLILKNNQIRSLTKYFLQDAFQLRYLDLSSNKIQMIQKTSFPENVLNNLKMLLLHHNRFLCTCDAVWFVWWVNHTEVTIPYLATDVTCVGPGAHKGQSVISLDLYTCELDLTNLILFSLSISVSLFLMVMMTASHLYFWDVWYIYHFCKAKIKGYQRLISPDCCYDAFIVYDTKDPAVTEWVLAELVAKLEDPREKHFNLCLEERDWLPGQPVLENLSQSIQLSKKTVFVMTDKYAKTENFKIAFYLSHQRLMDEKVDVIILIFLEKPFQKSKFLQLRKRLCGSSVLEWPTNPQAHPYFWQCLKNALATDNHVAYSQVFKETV
Experimental: (§1) HEK-Blue™ hTLR7 cells (Invivogen, San Diego, Calif.) were maintained at 37° C./5% CO2/90% relative humidity in Dulbecco's Modified Eagle's Medium with 10% fetal bovine serum, 100 units/mL penicillin, 100 μg/mL streptomycin, 100 μg/mL normocin, 10 μg/mL blasticidin, and 100 μg/mL zeocin. HEK-Blue™ hTLR7 cells were maintained at 10-90% confluence and used before passage 20. For this assay, test compounds were dissolved in DMSO, and 10-point serial 3-fold dilution series in DMSO were prepared in Echo Qualified 384-well Polypropylene Microplates (Labcyte, San Jose, Calif.). Assay plates (384-well flat, clear bottom, black polystyrene TC-treated microtiter plates; Corning, Corning, N.Y.) were prepared by dispensing 150 nL of test compounds, high control (CL097; Invivogen, San Diego, Calif.), and low control (DMSO) by ECHO acoustic dispenser (Labcyte, San Jose Calif.) followed by addition of 5 μL of HEK-Blue™ Detection assay media (Invivogen, San Diego, Calif.). HEK-Blue™ hTLR7 cells in HEK-Blue™ Detection assay media (20,000 cells per well in 45 μL of media) were added to the assay plate and incubated for 16 hours at 37° C./5% CO2/90% relative humidity. For detection, assay plates were removed from the incubator, allowed to cool to ambient temperature, centrifuged at 200×g for 1 minutes, and read with an EnSpire Multimode Plate Reader (Perkin Elmer, Waltham, Mass.) for absorbance at 620 nm. Test compound effects were normalized to the window defined by the controls, CL097 (6 μM), and DMSO. Calculated % effects were fit using a 4-parameter algorithm, and EC50 was reported.

hTLR8 = target: T2, hTLR8 (Homo sapiens, UniProt Q9NR97); assay: Human TLR8 Reporter Assay; format: cell-based; settings: HEK-Blue hTLR8 cells, 16 hours, normalized to tl8-506 (1 μM) and DMSO
T2 construct: host or cells: HEK-Blue hTLR8 cells (HEK293-derived, own knowledge)
T2 sequence (Q9NR97 27-1041): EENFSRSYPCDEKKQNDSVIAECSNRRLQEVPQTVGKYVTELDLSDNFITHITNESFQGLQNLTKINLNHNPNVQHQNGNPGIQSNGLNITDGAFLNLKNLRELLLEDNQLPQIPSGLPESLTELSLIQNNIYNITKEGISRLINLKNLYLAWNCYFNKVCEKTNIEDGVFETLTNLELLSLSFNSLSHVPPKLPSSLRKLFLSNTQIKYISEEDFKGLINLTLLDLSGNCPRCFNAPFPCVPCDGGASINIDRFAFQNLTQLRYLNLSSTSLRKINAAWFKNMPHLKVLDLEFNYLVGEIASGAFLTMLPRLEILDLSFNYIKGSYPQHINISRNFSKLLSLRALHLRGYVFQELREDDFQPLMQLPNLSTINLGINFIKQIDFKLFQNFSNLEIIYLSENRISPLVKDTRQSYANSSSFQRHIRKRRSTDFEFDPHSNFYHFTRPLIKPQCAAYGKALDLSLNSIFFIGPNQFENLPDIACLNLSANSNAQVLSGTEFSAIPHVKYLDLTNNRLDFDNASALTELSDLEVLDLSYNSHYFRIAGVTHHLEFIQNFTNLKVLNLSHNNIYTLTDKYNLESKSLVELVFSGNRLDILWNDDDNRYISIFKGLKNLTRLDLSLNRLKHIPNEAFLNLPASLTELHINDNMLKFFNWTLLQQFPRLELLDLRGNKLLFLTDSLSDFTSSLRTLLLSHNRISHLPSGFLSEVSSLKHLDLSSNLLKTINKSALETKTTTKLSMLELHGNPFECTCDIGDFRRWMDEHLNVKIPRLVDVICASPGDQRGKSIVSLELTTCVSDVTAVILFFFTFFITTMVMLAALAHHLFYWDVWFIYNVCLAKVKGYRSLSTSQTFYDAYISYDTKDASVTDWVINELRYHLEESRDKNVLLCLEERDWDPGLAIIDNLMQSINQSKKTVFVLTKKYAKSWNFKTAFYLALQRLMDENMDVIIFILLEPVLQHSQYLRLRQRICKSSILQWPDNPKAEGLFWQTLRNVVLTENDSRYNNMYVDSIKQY
Experimental: as §1, with “hTLR8” for “hTLR7”, “(tl8-506;” for “(CL097;”, “tl8-506 (1” for “CL097 (6”

Row | Compound | pEC50 (hTLR7) | pEC50 (hTLR8)
1 | CCCCNc1nc(N)nc2cn(Cc3ccccn3)nc12 [Compound 97] | 6.58 | 5.63
2 | CCCCNc1nc(N)nc2cn(Cc3c(OC)cc(N4C(=O)C=CC4=O)cc3OC)nc12 [Compound 98] | 6.38 | < 5.00
3 | CCCCNc1nc(N)nc2cn(Cc3ncc(N4CCNCC4)cc3OC)nc12 [Compound 99] | 6.20 | 5.86
4 | CCCCNc1nc(N)nc2cn(Cc3cccnc3OC)nc12 [Compound 100] | 7.13 | 6.30
5 | CCCCNc1nc(N)nc2cn(Cc3cnccc3OC)nc12 [Compound 101] | 6.82 | 5.90
6 | CCCCNc1nc(N)nc2cn(C(C)c3ccccc3OC)nc12 (centres unmarked) [Compound 102] | 5.85 | < 5.00
7 | CCCCNc1nc(N)nc2cn(Cc3c(OC)cc(CN4C(=O)C=CC4=O)cc3OC)nc12 [Compound 103] | 7.01 | 6.37
8 | CCCCNc1nc(N)nc2cn(Cc3ccc(CN4C(=O)C=CC4=O)cc3OC)nc12 [Compound 104] | 6.53 | 5.69
9 | CCCCNc1nc(N)nc2cn(Cc3ccc(CN4CCN(C(=O)CN5C(=O)C=CC5=O)CC4)cc3OC)nc12 [Compound 105] | 5.75 | 5.19
10 | CCCCNc1nc(N)nc2cn(Cc3cncnc3OC)nc12 [Compound 106] | 6.51 | 5.77
11 | CCC[C@H](CO)Nc1nc(N)nc2cn(Cc3c(OC)cccc3OC)nc12 [Compound 107] | 6.67 | 5.52
12 | CCC[C@@H](CO)Nc1nc(N)nc2cn(Cc3c(OC)cccc3OC)nc12 [Compound 108] | 7.53 | 6.94
13 | CCCCNc1nc(N)nc2cn(Cc3c(OC)cc(CNC)cc3OC)nc12 [Compound 109] | 7.04 | 7.00
14 | CCCCNc1nc(N)nc2cn(Cc3ncc(CN4C(=O)C=CC4=O)cc3OC)nc12 [Compound 110] | 6.26 | 5.43
15 | CCCCNc1nc(N)nc2cn(Cc3nccnc3OC)nc12 [Compound 111] | 7.09 | 6.22
16 | CCCCNc1nc(N)nc2cn(Cc3ccc(CN4CCNCC4)cc3)nc12 [Compound 112] | 5.80 | 4.70
17 | CCC[C@@H](C)Nc1nc(N)nc2cn(Cc3c(OC)cccc3OC)nc12 [Compound 113] | 7.72 | 6.69
18 | CCCCNc1nc(N)nc2cn(Cc3c(OC)cc(NCCN)cc3OC)nc12 [Compound 114] | 6.28 | 5.35
19 | CCCCNc1nc(N)nc2cn(Cc3ccc(N4CCN(C(=O)[C@H]5CC[C@H](CN)CC5)CC4)cc3OC)nc12 [Compound 115] | 6.48 | 5.25
20 | CCCCNc1nc(N)nc2cn(Cc3ccc(N4CC5(CNC5)C4)cc3OC)nc12 [Compound 116] | 6.01 | 5.38
21 | CCCCNc1nc(N)nc2cn(Cc3ccon3)nc12 [Compound 117] | 6.12 | 5.66
22 | CCCCNc1nc(N)nc2cn(Cc3ccc(CN4CC(CN)C4)cc3OC)nc12 [Compound 118] | 6.60 | 6.84
23 | CCCCNc1nc(N)nc2cn(Cc3ccc(CN4CCN(C(=O)CCN5C(=O)C=CC5=O)CC4)cc3)nc12 [Compound 119] | 5.18 | 4.65
24 | C=CC(=O)NC[C@H]1CC[C@H](C(=O)N2CCN(c3ccc(Cn4cc5nc(N)nc(NCCCC)c5n4)c(OC)c3)CC2)CC1 [Compound 120] | 6.95 | 5.65
25 | CCCCNc1nc(N)nc2cn(Cc3ncoc3C)nc12 [Compound 121] | 6.31 | 5.63
26 | CCCCNc1nc(N)nc2cn(Cc3ncccn3)nc12 [Compound 122] | 6.54 | 5.85
27 | CCCCNc1nc(N)nc2cn(Cc3ccc(N4CCNCC4)cn3)nc12 [Compound 123] | 6.13 | 6.06
28 | CCCC(Nc1nc(N)nc2cn(Cc3c(OC)cccc3OC)nc12)C(F)(F)F (centres unmarked) [Compound 124] | 6.58 | < 5.00
